Reference: paper PMC6455008, “Methylation at the C-3′ in D-Ring of Strigolactone Analogs Reduces Biological Activity in Root Parasitic Plants and Rice” (Frontiers in Plant Science, 2019)
Like-named read-outs stand apart in the source and are kept apart here.

How the values were obtained:
[1] = system: Arabidopsis seedlings; assay: Arabidopsis lateral root density assay; assay type: in vivo; conditions: compared to control seedlings; for inhibition of lateral root density: 1.0 μM
Experimental: (§1) The sterilized Arabidopsis seeds were grown in petri plates that were first kept at 4°C in darkness for 3 days. For hypocotyl study, the petri plates were exposed to continuous white light for 24 h, then transferred to continuous monochromatic red light (20 μmol m^−2 s^−1, 22°C) conditions for another 4 days. For lateral root density, the plates were vertically grown at 22°C in Percival incubator under long day conditions (16 h at 22°C/8 h at 16°C day/night, 60% relative humidity, 60–70 μmol m^−2 s^−1 white light) for 8 days. After scanning, the hypocotyl length and number of lateral roots were recorded using publicly available ImageJ software.^1

[2] = target: T1, ShHTL7 (Striga hermonthica, UniProt A0A0M3PNA2); assay: In vitro YLG hydrolysis competition assay, ShHTL7; assay type: biochemical; conditions: 3.0 μM protein, 1.0 μM YLG, 60 min, room temperature; read-out: IC50, competitive inhibition of ShHTL7-mediated YLG hydrolysis
T1 sequence (A0A0M3PNA2 1-271): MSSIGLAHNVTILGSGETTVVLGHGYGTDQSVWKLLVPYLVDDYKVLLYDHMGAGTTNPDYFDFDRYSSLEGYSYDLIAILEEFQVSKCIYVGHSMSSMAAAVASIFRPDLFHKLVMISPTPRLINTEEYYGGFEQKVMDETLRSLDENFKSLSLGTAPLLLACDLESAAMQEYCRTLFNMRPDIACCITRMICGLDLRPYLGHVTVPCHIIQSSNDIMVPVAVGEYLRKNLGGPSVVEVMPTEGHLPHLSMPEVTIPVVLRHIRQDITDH
Experimental: Protein expression and purification of ShHTL7 and Oryza sativa D14 (OsD14) was carried out according to the procedure described earlier ([Jamil et al., 2018]). In vitro Yoshimulactone Green (YLG) hydrolysis assays ([Tsuchiya et al., 2015]) were carried out using 3.0 μM of protein ShHTL7 and OsD14 in a reaction buffer (1X PBS buffer, pH 7.3) with 0.1% DMSO at a 100-μl volume on a 96-well black plate (Greiner). For competitive assays, rac-GR24, AR8, MP13, and MP26 (at range between 0.01 and 50 μM) were co-incubated with 1.0 μM of YLG (Tokyo Chemical Industry Co. Ltd., product number E1238) for 60 min at room temperature. Fluorescent intensity was measured by spectraMax i5 (Molecular Devices) at excitation by 480 nm and detection by 520 nm. The change in fluorescence observed over the course of 1 h of YLG in buffer without protein was subtracted from the data collected in presence of protein. IC50 values were calculated by GraphPad (Prism 7).

[3] = system: P. aegyptiaca seeds; assay: Parasitic seed germination bioassay, Phelipanche; assay type: in vivo, Phelipanche aegyptiaca; conditions: for EC50: Phelipanche aegyptiaca; for P. aegyptiaca germination rate: non-formulated, 1.0 μM, 1 week at 25°C
Experimental: Germination activity of SL analogs on S. hermonthica and P. aegyptiaca seeds was tested by following the procedure described before ([Jamil et al., 2012]). The preconditioned Striga and Phelipanche seeds were treated with 50 μl of each SL analog solution at a concentration range (10^−5–10^−12 M). GR24 and sterile MilliQ water were included as positive and negative controls, respectively. The treated seeds were allowed to germinate in the dark for 24 h at 30°C (for Striga) and for 1 week at 25°C (for Phelipanche). The germinated and non-germinated seeds were counted under a binocular microscope, and germination rate (in %) was calculated.
Collected data were analyzed statistically using statistical software package R (version 3.2.2).

[4] = system: Striga seeds; assay: Stability of formulated SL analogs in aqueous solution under storage (Striga germination readout); assay type: physicochemical, Striga hermonthica; conditions: 1.0 μM
Experimental: The stability of formulated SL analogs was further tested in sand culture. About 1.5 ml of silver sand was added in each of 6 wells of 24-well plates. Then, 800 μl of formulated SL analogs (1.0 μM) was added in each of the six wells. The plates were sealed firmly with para-film, wrapped in aluminum foil, and placed at 30°C from day 1 to day 7. After 7 days, glass fiber discs containing preconditioned Striga seeds were placed on the top of each of the six wells and incubated in the dark at 30°C for 24 h. The germinated and non-germinated seeds were counted from each disc. In addition, the viability of formulated SL analogs was also tested in aqueous solution for 7 weeks at 30°C. About 800-μl aqueous solution of formulated SL analogs (1.0 μM) was added in a black Eppendorf tube weekly up to 6 weeks and incubated at 30°C. On the seventh week, about 50 μl of each analog was applied on a glass fiber disc containing preconditioned Striga seed and put again in the dark in sealed petri plates at 30°C for 24 h. Germinated and non-germinated seeds were counted from each disc.

[5] = system: Striga hermonthica; assay: Striga emergence in pots under greenhouse conditions (suicidal germination, rice host); assay type: in vivo; conditions: formulated 1.0 μM; for Striga emergence at 10 WAS / decrease in Striga emergence compared to mock at 10 WAS: 10 weeks after sowing; for Striga hermonthica emergence, 5 WAS / Striga hermonthica emergence, 6 WAS / Striga hermonthica emergence, 7 WAS / Striga hermonthica emergence, 8 WAS / Striga hermonthica emergence, 9 WAS / Striga hermonthica emergence, 10 WAS: mean ± SE; for Striga hermonthica emergence, 5 WAS: n=5, 5 weeks after sowing; for Striga hermonthica emergence, 6 WAS: n=5, 6 weeks after sowing; for Striga hermonthica emergence, 7 WAS: n=5, 7 weeks after sowing; for Striga hermonthica emergence, 8 WAS: n=5, 8 weeks after sowing; for Striga hermonthica emergence, 9 WAS: n=5, 9 weeks after sowing; for Striga hermonthica emergence, 10 WAS: n=5, 10 weeks after sowing; for percent decrease in Striga hermonthica emergence over mock, 8 WAS / percent decrease in Striga hermonthica emergence over mock, 9 WAS / percent decrease in Striga hermonthica emergence over mock, 10 WAS: negative = decrease
Experimental: About 10 mg of (ca 4,000) Striga seeds were thoroughly mixed in 2 L of sand and soil mixture (1:1) and added in 3-L perforated plastic pot containing 0.5 L of clean soil in the bottom. Striga seeds were first preconditioned by giving light irrigation and putting pots at 35°C in greenhouse for 10 days. Each pot was sprayed with 20-ml (1.0 μM) formulated SL analogs up to 10 days at 2-day intervals. A light irrigation was given next day of each application to move the compound to Striga seeds and they were allowed to germinate for suicidal death without host for another 1 week. Then, three rice seedlings (5 days old) were planted in the middle of each pot. The rice plants were grown under normal growth condition (30°C, 70% RH) for 8 weeks. Number of emerged Striga plants in each pot were counted.

[6] = system: Arabidopsis seedlings; assay: Arabidopsis hypocotyl elongation assay; assay type: in vivo; conditions: compared to control seedlings; for inhibition of hypocotyl growth (reduction in hypocotyl length): 1.0 μM
Experimental: as §1

[7] = Stability of SL analogs in aqueous solution by HPLC; assay type: physicochemical; conditions: pH 6.8, 3-day intervals up to 3 weeks
Experimental: The SL analogs GR24, AR8, MP13, and MP26 were first tested for their stability by high-performance liquid chromatography (HPLC) in an aqueous solution (50 μgml^−1, pH, 6.8) by adopting the previously described procedure with minor modifications ([Jamil et al., 2018]). Each compound (1 mg) was dissolved in 1-ml acetone, and then […] out of the analog solution were diluted with 150 μl ethanol and 750 μl water. Thereafter, 25 μl Indanol (1 mg ml^−1, internal standard) was spiked in 975-μl test solution. The time course of degradation was monitored by ultra-performance liquid chromatography (UPLC) analysis using a Zorbax Eclipse XDB-C18 column (3.5 μm, 4.6 mm× 150 mm), eluted first by 5% acetonitrile in water for 0.5 min, then by a gradient flow from 5 to 100% acetonitrile within 17.5 min, and by 100% acetonitrile for 5 min. The column was operated at 40°C with a flow rate of 0.35 ml min^−1, and the temperature of auto-sampler was set at 21°C. Compounds eluted from the column were detected with a photodiode array detector, and the relative quantity of non-degraded amount was calculated by integrating corresponding peak areas and comparison with the internal standard Indanol. Stability was monitored at 3-day intervals up to 3 weeks.

[8] = read-out: EC50 P. aegyptiaca seed germination, formulated
[9] = read-out: EC50 P. aegyptiaca seed germination, non-formulated

SMILES	IC50 [2] [nM]	EC50 [3, 8] [nM]	EC50 [3, 9] [nM]	P. aegyptiaca germination rate [3]	Striga germination rate before storage [4] [%]	Striga emergence at 10 WAS [5]	decrease in Striga emergence compared to mock at 10 WAS [5]	Striga hermonthica emergence, 5 WAS [5]	Striga hermonthica emergence, 6 WAS [5]	Striga hermonthica emergence, 7 WAS [5]	Striga hermonthica emergence, 8 WAS [5]	Striga hermonthica emergence, 9 WAS [5]	Striga hermonthica emergence, 10 WAS [5]	percent decrease in Striga hermonthica emergence over mock, 8 WAS [5] [%]	percent decrease in Striga hermonthica emergence over mock, 9 WAS [5] [%]	percent decrease in Striga hermonthica emergence over mock, 10 WAS [5] [%]	stability by HPLC (relative amount of non-degraded analog) [7]	inhibition of lateral root density [1]	Striga germination rate after 1 week's storage ([4]; 30°C)	inhibition of hypocotyl growth (reduction in hypocotyl length) [6]	other results
COC(=O)/C=C/C(C)=C/OC1C=C(C)C(=O)O1 (stereo not drawn) [MP26, (2E,4E)-methyl 4-methyl-5-(4-methyl-5-oxo-2,5-dihydrofuran-2-yloxy)penta-2,4-dienoate]	5300 ± 710	99	520	around 68%	69	four	69%	0.0±0.0	0.8±0.6	1.4±0.4	2.6±0.4	3.6±0.8	4.0±0.9	-76	-68	-69	equal stability as GR24 up to 6 days of incubation	–	–	–	inhibition at 1 µM ([1]; Arabidopsis thaliana): 43%; Striga germination rate after 6 weeks of storage ([4]; 30°C, 6 weeks): 4%; inhibition at 1 µM ([6]; Arabidopsis thaliana, read-out: inhibition of hypocotyl growth (reduction in hypocotyl length)): 15%
CC1=CC(O/C=C(\C)C=O)OC1=O (stereo not drawn) [MP13, (E)-2-methyl-3-[(4-methyl-5-oxo-2,5-dihydrofuran-2-yl)oxy]acrylaldehyde]	3870 ± 900	250	32	around 68%	53	six	52%	0.0±0.0	1.6±1.0	2.6±0.6	4.8±0.6	5.8±0.6	6.2±0.7	-56	-51	-52	lowest stability throughout the whole 3 weeks of analysis	did not lead to a significant effect	9%	did not lead to a significant effect	Striga germination activity after 2 weeks of storage ([4]; 30°C, 2 weeks): not detectable
CC1=C(C)C(O/C=C(\C)C=O)OC1=O (stereo not drawn) [AR8, reference compound]	6900 ± 970	320	970	32%	–	11 plants per pot	around 18%	0.4±0.2	4.4±0.5	7.2±1.5	10.6±1.5	10.8±1.5	10.6±1.5	-4	-11	-18	slightly less stability than GR24 and MP26 but more than MP13	did not lead to a significant effect	total loss of activity	did not lead to a significant effect	–
